Structures can show the parent of a compound that is named as a salt.
Target: T1, human GPR119 (hGPR119) (Homo sapiens, UniProt Q8TDV5)
T1 construct: expressed in transfected cells
T1 sequence (Q8TDV5 1-335): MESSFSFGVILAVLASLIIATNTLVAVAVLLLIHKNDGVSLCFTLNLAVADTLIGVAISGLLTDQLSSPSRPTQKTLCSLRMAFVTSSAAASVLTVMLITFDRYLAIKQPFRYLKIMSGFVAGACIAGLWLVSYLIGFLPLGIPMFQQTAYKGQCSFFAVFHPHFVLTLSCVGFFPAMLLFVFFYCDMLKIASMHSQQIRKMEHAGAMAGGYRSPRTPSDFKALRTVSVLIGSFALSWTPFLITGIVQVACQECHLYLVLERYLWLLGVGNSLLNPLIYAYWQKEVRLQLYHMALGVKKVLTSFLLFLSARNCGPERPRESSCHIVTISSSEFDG
Assay: cAMP accumulation assay (cAMP Gs dynamic HTRF kit)
Type: cell-based
Settings: CHO-K1 cells stably expressing hGPR119, 4-parameter fit; for Emax: 1 h, % activity normalized to Max/Min controls; for EC50: cAMP accumulation
Summary of the method: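 Read-out is HTRF 665/620 nm ratio after 1 h detection at ambient temperature, converted to % activity against positive and negative controls, EC50 and Max activity by 4-parameter fit. Compounds were titrated onto ~10,000 thawed hGPR119-CHO-K1 cells/well for 60 min at 37° C/5% CO2.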

| Structure (SMILES) | Emax [%] | EC50 [nM] |
| --- | --- | --- |
| O=C(CCC1CN(C(=O)Cc2ccc(OCCCC3CCN(c4ncc(Cl)cn4)CC3)cc2F)C1)NCC(O)(CO)CO [Example 35, 3-[1-[2-[4-[3-[1-(5-chloropyrimidin-2-yl)-4-piperidyl]propoxy]-2-fluoro-phenyl]acetyl]azetidin-3-yl]-N-[2,3-dihydroxy-2-(hydroxymethyl)propyl]propanamide] | ≥ 130 | ≤ 100 |
| O=C(CCC1CN(C(=O)Cc2c(F)cc(OCCCC3CCN(c4ncc(Cl)cn4)CC3)cc2F)C1)NCC(O)(CO)CO [Example 36, 3-[1-[2-[4-[3-[1-(5-chloropyrimidin-2-yl)-4-piperidyl]propoxy]-2,6-difluoro-phenyl]acetyl]azetidin-3-yl]-N-[2,3-dihydroxy-2-(hydroxymethyl)propyl]propanamide] | 100 to 130 | ≤ 100 |
| CCCc1cnc(N2CCC(CCCOc3cc(F)c(CC(=O)N4CC(C(=O)NCCC[N+](C)(C)C)C4)c(F)c3)CC2)nc1 [Example 40, 3-[[1-[2-[2,6-difluoro-4-[3-[1-(5-propylpyrimidin-2-yl)-4-piperidyl]propoxy]phenyl]acetyl]azetidine-3-carbonyl]amino]propyl-trimethyl-ammonium formate] | 100 to 130 | – |
| O=C(NCC(O)(CO)CO)C1CCN(C(=O)Cc2ccc(OCCCC3CCN(c4ncc(Cl)cn4)CC3)cc2F)CC1 [Example 41, 1-[2-[4-[3-[1-(5-chloropyrimidin-2-yl)-4-piperidyl]propoxy]-2-fluoro-phenyl]acetyl]-N-[2,3-dihydroxy-2-(hydroxymethyl)propyl]piperidine-4-carboxamide] | 100 to 130 | 100 to 1000 |
| O=C(Cc1ccc(OCCCC2CCN(c3ncc(Cl)cn3)CC2)cc1F)N1CC(CNCC(O)(CO)CO)C1 [Example 43, 2-[4-[3-[1-(5-chloropyrimidin-2-yl)-4-piperidyl]propoxy]-2-fluoro-phenyl]-1-[3-[[[2,3-dihydroxy-2-(hydroxymethyl)propyl]amino]methyl]azetidin-1-yl]ethanone] | 100 to 130 | ≤ 100 |
| O=C(Cc1ccc(OCCCC2CCN(c3ncc(Cl)cn3)CC2)cc1F)N1CC(CNCC(CO)CO)C1 [Example 45, 2-[4-[3-[1-(5-chloropyrimidin-2-yl)-4-piperidyl]propoxy]-2-fluoro-phenyl]-1-[3-[[[3-hydroxy-2-(hydroxymethyl)propyl]amino]methyl]azetidin-1-yl]ethanone] | 100 to 130 | ≤ 100 |
| O=C(Cc1ccc(OCCCC2CCN(c3ncc(Cl)cn3)CC2)cc1F)N1CC(CN2C[C@@H](O)[C@@H](O)C2)C1 [Example 48, 2-[4-[3-[1-(5-chloropyrimidin-2-yl)-4-piperidyl]propoxy]-2-fluoro-phenyl]-1-[3-[[rac-(3S,4R)-3,4-dihydroxypyrrolidin-1-yl]methyl]azetidin-1-yl]ethanone] | 100 to 130 | ≤ 100 |
| O=C(Cc1ccc(OCCCC2CCN(c3ncc(Cl)cn3)CC2)cc1F)N1CC(CN2C[C@@H](O)[C@@H](O)[C@@H](O)C2)C1 [Example 50, 2-[4-[3-[1-(5-chloropyrimidin-2-yl)-4-piperidyl]propoxy]-2-fluoro-phenyl]-1-[3-[[rac-(3R,5S)-3,4,5-trihydroxy-1-piperidyl]methyl]azetidin-1-yl]ethanone] | 100 to 130 | ≤ 100 |
| O=C(Cc1ccc(OCCCC2CCN(c3ncc(Cl)cn3)CC2)cc1F)N1CC(CNCCOCCOCCO)C1 [Example 51, 2-[4-[3-[1-(5-chloropyrimidin-2-yl)-4-piperidyl]propoxy]-2-fluoro-phenyl]-1-[3-[[2-[2-(2-hydroxyethoxy)ethoxy]ethylamino]methyl]azetidin-1-yl]ethanone] | 50 to 100 | ≤ 100 |
| NCCOCCOCCNCC1CN(C(=O)Cc2ccc(OCCCC3CCN(c4ncc(Cl)cn4)CC3)cc2F)C1 [Example 52, 1-[3-[[2-[2-(2-aminoethoxy)ethoxy]ethylamino]methyl]azetidin-1-yl]-2-[4-[3-[1-(5-chloropyrimidin-2-yl)-4-piperidyl]propoxy]-2-fluoro-phenyl]ethanone] | 100 to 130 | 100 to 1000 |
| O=C(Cc1c(F)cc(OCCCC2CCN(c3ncc(Cl)cn3)CC2)cc1F)N1CC(CNC[C@H](O)[C@@H](O)[C@H](O)[C@H](O)CO)C1 [Example 53, 2-[4-[3-[1-(5-chloropyrimidin-2-yl)-4-piperidyl]propoxy]-2,6-difluoro-phenyl]-1-[3-[[[(2S,3R,4R,5R)-2,3,4,5,6-pentahydroxyhexyl]amino]methyl]azetidin-1-yl]ethanone] | ≥ 130 | ≤ 100 |
| O=C(Cc1ccc(OCCCCC2CCN(c3ncc(Cl)cn3)CC2)cc1F)N1CC(CNC[C@H](O)[C@@H](O)[C@H](O)[C@H](O)CO)C1 [Example 54, 2-[4-[4-[1-(5-chloropyrimidin-2-yl)-4-piperidyl]butoxy]-2-fluoro-phenyl]-1-[3-[[[(2S,3R,4R,5R)-2,3,4,5,6-pentahydroxyhexyl]amino]methyl]azetidin-1-yl]ethanone] | ≥ 130 | 100 to 1000 |
| O=C(Cc1c(F)cc(OCCCCC2CCN(c3ncc(Cl)cn3)CC2)cc1F)N1CC(CNC[C@H](O)[C@@H](O)[C@H](O)[C@H](O)CO)C1 [Example 55, 2-(4-(4-(1-(5-chloropyrimidin-2-yl)piperidin-4-yl)butoxy)-2,6-difluorophenyl)-1-(3-((((2S,3R,4R,5R)-2,3,4,5,6-pentahydroxyhexyl)amino)methyl)azetidin-1-yl)ethan-1-one] | ≥ 130 | 100 to 1000 |
| O=C(Cc1ccc(OCCCC2CCN(c3ncc(Cl)cn3)CC2)cc1F)N1CC(CCNC(CO)CO)C1 [Example 56, 2-(4-(3-(1-(5-chloropyrimidin-2-yl)piperidin-4-yl)propoxy)-2-fluorophenyl)-1-(3-(2-((1,3-dihydroxypropan-2-yl)amino)ethyl)azetidin-1-yl)ethan-1-one] | 100 to 130 | ≤ 100 |
| O=C(Cc1ccc(OCCCC2CCN(c3ncc(Cl)cn3)CC2)cc1F)N1CC(CCNCC(CO)CO)C1 [Example 57, 2-(4-(3-(1-(5-chloropyrimidin-2-yl)piperidin-4-yl)propoxy)-2-fluorophenyl)-1-(3-(2-((3-hydroxy-2-(hydroxymethyl)propyl)amino)ethyl)azetidin-1-yl)ethan-1-one] | 100 to 130 | ≤ 100 |
| O=C(Cc1ccc(OCCCC2CCN(c3ncc(Cl)cn3)CC2)cc1F)N1CC(CCNCC(O)(CO)CO)C1 [Example 58, 2-(4-(3-(1-(5-chloropyrimidin-2-yl)piperidin-4-yl)propoxy)-2-fluorophenyl)-1-(3-(2-((2,3-dihydroxy-2-(hydroxymethyl)propyl)amino)ethyl)azetidin-1-yl)ethan-1-one] | ≥ 130 | 100 to 1000 |
| O=C(Cc1ccc(OCCCC2CCN(c3ncc(Cl)cn3)CC2)cc1F)N1CC(CCNC(CO)(CO)CO)C1 [Example 59, 2-(4-(3-(1-(5-chloropyrimidin-2-yl)piperidin-4-yl)propoxy)-2-fluorophenyl)-1-(3-(2-((1,3-dihydroxy-2-(hydroxymethyl)propan-2-yl)amino)ethyl)azetidin-1-yl)ethan-1-one] | 100 to 130 | 100 to 1000 |
| O=C(NCCNCCC1CN(C(=O)Cc2ccc(OCCCC3CCN(c4ncc(Cl)cn4)CC3)cc2F)C1)NC(CO)(CO)CO [Example 60, 1-(2-((2-(1-(2-(4-(3-(1-(5-chloropyrimidin-2-yl)piperidin-4-yl)propoxy)-2-fluorophenyl)acetyl)azetidin-3-yl)ethyl)amino)ethyl)-3-(1,3-dihydroxy-2-(hydroxymethyl)propan-2-yl)urea] | ≥ 130 | 100 to 1000 |
| O=C(Cc1ccc(OCCCC2CCN(c3ncc(Cl)cn3)CC2)cc1F)N1CC(CCNC[C@H](O)[C@@H](O)[C@H](O)[C@H](O)CO)C1 [Example 61] | 100 to 130 | 100 to 1000 |
| CCc1cnc(N2CCC(CCCOc3ccc(CC(=O)N4CC(CNCC(CO)CO)C4)c(F)c3)CC2)nc1 [Example 62, 2-(4-(3-(1-(5-ethylpyrimidin-2-yl)piperidin-4-yl)propoxy)-2-fluorophenyl)-1-(3-(((3-hydroxy-2-(hydroxymethyl)propyl)amino)methyl)azetidin-1-yl)ethan-1-one] | ≥ 130 | 100 to 1000 |
| CCc1cnc(N2CCC(CCCOc3ccc(CC(=O)N4CC(CNCC(O)(CO)CO)C4)c(F)c3)CC2)nc1 [Example 63, 1-(3-(((2,3-dihydroxy-2-(hydroxymethyl)propyl)amino)methyl)azetidin-1-yl)-2-(4-(3-(1-(5-ethylpyrimidin-2-yl)piperidin-4-yl)propoxy)-2-fluorophenyl)ethan-1-one] | ≥ 130 | ≤ 100 |
| CCc1cnc(N2CCC(CCCOc3ccc(CC(=O)N4CC(CNC(CO)(CO)CO)C4)c(F)c3)CC2)nc1 [Example 64, 1-(3-(((1,3-dihydroxy-2-(hydroxymethyl)propan-2-yl)amino)methyl)azetidin-1-yl)-2-(4-(3-(1-(5-ethylpyrimidin-2-yl)piperidin-4-yl)propoxy)-2-fluorophenyl)ethan-1-one] | ≥ 130 | ≤ 100 |
| CCc1cnc(N2CCC(CCCOc3ccc(CC(=O)N4CC(CNCCNC(=O)NC(CO)(CO)CO)C4)c(F)c3)CC2)nc1 [Example 65, 1-(1,3-dihydroxy-2-(hydroxymethyl)propan-2-yl)-3-(2-(((1-(2-(4-(3-(1-(5-ethylpyrimidin-2-yl)piperidin-4-yl)propoxy)-2-fluorophenyl)acetyl)azetidin-3-yl)methyl)amino)ethyl)urea] | 100 to 130 | ≤ 100 |

From patent US20230061736A1, “GPR119 AGONISTS” (Kallyope, Inc., priority 2019, published 2023)
